The record followed here is US12570603B2, “FABP4/5 inhibitors, methods of use and methods of making” (Novius Therapeutics, LLC, priority 2021, dated 2026).

One assay deals with T1, FABP4 (Homo sapiens, UniProt P15090).
T1 construct: made in house
The assay can be described thus: FABP binding assay by fluorescence titration (ANS competition). The note with it: fluorescence competition with ANS; read-out: FABP4 binding. The protocol: (§1) This example illustrates a binding assay study used to determine the binding affinity of the various inhibitor compounds disclosed herein with the various FABPs: FABP3, FABP4, FABP5 and FABP7.
(§2) Binding assays for FABP3, FABP4, FABP5 and FABP7 were carried out by fluorescence titrations. FABPs were bacterially expressed and purified and the equilibrium dissociation constants (Kd) that characterize their interactions with different compounds were measured by fluorescence competition assays. The method entails two steps as described in e.g., Lin, Q. et al., “Ligand selectivity of the peroxisome proliferator-activated receptor alpha,” Biochemistry 38, 185-190, doi:10.1021/bi9816094 bi9816094 [pii](1999). In the first step, Kd for the association of the protein with the fluorescent fatty acid probe ANS was measured. Protein ([…]) was titrated with ANS from a concentrated solution in DMSO. Ligand binding was monitored by following the increase in the fluorescence of the ligand upon binding to the protein, and Kd for the association of ANS with the each FABP was computed from titration curves as described in e.g., Norris, A. W. & Li, E., “Fluorometric titration of the CRABPs,” Methods Mol Biol 89, 123-139 (1998)). Kds for binding of non-fluorescent ligands were then measured by monitoring their ability to displace ANS in the binding pocket of the protein. Each FABP was pre-complexed with ANS at 1:1 molar ratio and titrated with the different compounds whose binding was reflected by a decrease in probe fluorescence. Kds were extracted from the EC50 of the competition curve and the measured Kd for ANS.
(§3) Binding assays for FABP3, FABP4, FABP5 and FABP7 were carried out by fluorescence titrations as described in Example 16.

A further assay has as its target T2, FABP5 (Homo sapiens, UniProt Q01469).
T2 construct: made in house
The description is as above. The note with it: fluorescence competition with ANS; read-out: FABP5 binding. The protocol:
as §1, §2, §3

For the next assay, the system named is PPARδ. The assay can be described thus: Transactivation assay, PPRE luciferase reporter in COS-7 cells. It counts as cell-based. The note with it: 5 μM, COS7 cells, FIG. 36A. As for the experimental part: COS-7 were cultured in 6-well plates and co-transfected with either a luciferase reporter driven by 3 copies of a PPRE and expression vector for either PPARδ, PPARα or PPARγ together with a vector harboring cDNA for β-galactosidase, serving as a transfection control. To test whether FABP4 or FABP5 mediate activation of their cognate receptors PPARγ and PPARδ, respectively, cells were also co-transfected with a plasmid harboring sequence of either FABP4 or FABP5. 18 h post-transfection, cells were placed in a serum-free medium and treated with agonist/compound. 18 h. later, cells were lysed, luciferase activity was assayed (Promega, WI, USA) and corrected for transfection efficiency by the activity of β-galactosidase.
COS-7 were cultured in 6-well plates and co-transfected with either a luciferase reporter driven by 3 copies of a PPRE and expression vector for either PPARδ, PPARα or PPARγ together with a vector harboring cDNA for β-galactosidase, serving as a transfection control. 18 h. post-transfection, cells were placed in a serum-free medium and treated with agonist/compound. 18 h. later, cells were lysed, luciferase activity was assayed (Promega, WI, USA) and corrected for transfection efficiency by the activity of β-galactosidase.
A general note: Reporter assays use an easily measured gene product as a stand-in for the process of interest.

For the next assay, the system named is HepG2 cells. The assay can be described thus: Lipid uptake assay, oleic acid, Nile Red (steatosis model). It counts as cell-based, human. The note with it: OA 1 mM 24 h, compound 4 h before. The protocol:
2) Hepg2 cells: 5000 cells were plated in 96-well plate. The next day cells were treated with tested compounds for 4 hours and then treated with 1 mM oleic acid for additional 24 hours. Cells were then stained with Nile Red and Dapi and lipid content was quantified using Cytation5 (Agilent).
2) Hepg2 cells: 5000 cells were plated in 96-well plate. The next day cells were treated with tested compounds for 4 hours and then treated with 1 mM oleic acid for additional 24 hours. Cells were then stained with Nile Red and Dapi and lipid content was quantified.

Another assay has as its system MB-231 cells. The assay can be described thus: Proliferation assay (Incucyte confluency, 4 days). It counts as cell-based. To be noted: MB-231, serial dilution. As for the experimental part:
(§4) COS-7, MDA-MB-231, HepG2, LX-2, 3T3-L1, NPG, and MCF7 were cultured in Dulbecco's modified Eagle's medium (DMEM) supplemented with 10% fetal bovine serum (Invitrogen Life Sciences, Carlsbad, CA). MDA-MB-157 and MB-549 cells were cultured in L-Glutamine containing RPMI medium supplemented with 10% fetal calf serum (Invitrogen Life Sciences, Carlsbad, CA). For proliferation assays, 2000 cells were plated in each well of 96-well plate. The next day cells were treated with compounds and incubated in Incucyte for 4 days. Images taken every 4 hours for the duration of the time were analyzed to calculate percentage of confluency in response to the treatments.
(§5) The TNBC line MB-231 was used to calculate the efficacy of compounds B104, B106, B110, B116, and B118 in inhibiting proliferation of the cancer cells. Cells were treated with serial dilution of the compounds or the known FABP5/7 inhibitor SBF-I26 and proliferation was measured in Incucyte by calculating percentage of confluency every 4 hours over 4 days. […] The EC50 for each compound was calculated by fitting the percentage of inhibition vs. the logarithmic transformation of the used concentrations (FIG. 37B and FIG. 37D). Additionally, the effect of B116 and B118 was also tested on proliferation of the human TNBC lines MDA-MB-157 (FIG. 37E) and MB-549 (FIG. 37F).

A further assay relates to MB-549. Put plainly: Proliferation assay (Incucyte confluency, 4 days). It counts as cell-based, human. The note with it: MB-549, 4 days. The protocol:
as §4, §5

The next assay deals with MDA-MB-157. Put plainly: Proliferation assay (Incucyte confluency, 4 days). It counts as cell-based, human. To be noted: MDA-MB-157, 4 days. As for the experimental part: as §4, §5
For assay [1], the system named is NPG human neuroblastoma cells. Put plainly: Neuroblastoma proliferation assay with or without all-trans retinoic acid. It counts as cell-based. To be noted: for proliferation of neuroblastoma cells in combination with atRA: combined with atRA; for proliferation of neuroblastoma cells: compound alone, 4 days. As for the experimental part:
as §4
Activation of PPARβ by atRA shifts the signaling of this vitamin from its cognate receptor RAR that is known to have anti-carcinogenic activities in multiple cancers to the pro-carcinogenic PPARβ. […] Accordingly, NB, human NPG cells were used to test the effect of FABP5 inhibitors on cells' proliferation in combination with atRA. Cells were treated with either B104 or B108 in the presence or absence of atRA.

T1 sequence (P15090 whole entry, species assumed): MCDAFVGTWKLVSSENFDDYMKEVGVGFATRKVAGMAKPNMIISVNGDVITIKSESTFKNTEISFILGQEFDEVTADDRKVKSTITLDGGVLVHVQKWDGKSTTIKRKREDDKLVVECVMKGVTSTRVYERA
T2 sequence (Q01469 whole entry, species assumed): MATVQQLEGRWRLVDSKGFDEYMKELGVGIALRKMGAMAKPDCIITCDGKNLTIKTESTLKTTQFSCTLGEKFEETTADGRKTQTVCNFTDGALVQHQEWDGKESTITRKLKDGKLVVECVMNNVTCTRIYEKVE

Regarding `CC(C)Oc1cc(NC(=O)CC(C)(C)CC(=O)O)c(Cl)cc1Cl` [Compound B116, 5-((2,4-dichloro-5-isopropoxyphenyl)amino)-3,3-dimethyl-5-oxopentanoic acid], the values for the Kd on FABP4 and on FABP5 were 90 nM and 3 nM, respectively. Also, the “activation of transcription by PPARδ” value in the assay with PPARδ was “do not Activate Transcription”. Also, the “uptake of lipid into hepatic cells (Nile Red)” value in the assay on HepG2 cells is “markedly inhibited”. Moreover, the “suppression of growth of TNBC cells compared with SBF-I26” value with MB-231 cells is reported as “Suppress Growth of TNBC Cells More Effectively than the Commercially Available Inhibitor SBF-I26”. Further, the proliferation entry in the assay on MB-549 and with MDA-MB-157 was “inhibited proliferation of both TNBC lines” each time. The “proliferation of neuroblastoma cells in combination with atRA” value in assay [1] was “sensitize cells to all-trans retinoic acid treatments”. The “proliferation of neuroblastoma cells” value in assay [1] is on record as “inhibit growth of neuroblastoma”.

For `CC(C)Oc1cc(NC(=O)CC2(CC(=O)O)CCCC2)c(Cl)cc1Cl` [Compound B118, 2-(1-(2-((2,4-dichloro-5-isopropoxyphenyl)amino)-2-oxoethyl)cyclopentyl)acetic acid], the Kd came out at 78 nM on FABP4 and 2 nM on FABP5. Also, the “activation of transcription by PPARδ” value in the assay on PPARδ is recorded as “do not Activate Transcription”. The “uptake of lipid into hepatic cells (Nile Red)” value with HepG2 cells is recorded as “markedly inhibited”. Also, the “suppression of growth of TNBC cells compared with SBF-I26” value with MB-231 cells is “Suppress Growth of TNBC Cells More Effectively than the Commercially Available Inhibitor SBF-I26”. Also, the proliferation entry in the assay with MB-549 and in the assay with MDA-MB-157 was “inhibited proliferation of both TNBC lines” each time. The “proliferation of neuroblastoma cells in combination with atRA” value in assay [1] was “sensitize cells to all-trans retinoic acid treatments”. Also, the “proliferation of neuroblastoma cells” value in assay [1] was “inhibit growth of neuroblastoma”.
